Tests used:
[1] = target: T1, Xanthine dehydrogenase/oxidase (Bos taurus, UniProt P80457); test: Inhibition of cow milk xanthine oxidase
[2] = target: T1, Xanthine dehydrogenase/oxidase; test: Inhibition of cow milk xanthine oxidase at 50 ug/mL; details: cattle

T1 sequence (P80457 whole entry): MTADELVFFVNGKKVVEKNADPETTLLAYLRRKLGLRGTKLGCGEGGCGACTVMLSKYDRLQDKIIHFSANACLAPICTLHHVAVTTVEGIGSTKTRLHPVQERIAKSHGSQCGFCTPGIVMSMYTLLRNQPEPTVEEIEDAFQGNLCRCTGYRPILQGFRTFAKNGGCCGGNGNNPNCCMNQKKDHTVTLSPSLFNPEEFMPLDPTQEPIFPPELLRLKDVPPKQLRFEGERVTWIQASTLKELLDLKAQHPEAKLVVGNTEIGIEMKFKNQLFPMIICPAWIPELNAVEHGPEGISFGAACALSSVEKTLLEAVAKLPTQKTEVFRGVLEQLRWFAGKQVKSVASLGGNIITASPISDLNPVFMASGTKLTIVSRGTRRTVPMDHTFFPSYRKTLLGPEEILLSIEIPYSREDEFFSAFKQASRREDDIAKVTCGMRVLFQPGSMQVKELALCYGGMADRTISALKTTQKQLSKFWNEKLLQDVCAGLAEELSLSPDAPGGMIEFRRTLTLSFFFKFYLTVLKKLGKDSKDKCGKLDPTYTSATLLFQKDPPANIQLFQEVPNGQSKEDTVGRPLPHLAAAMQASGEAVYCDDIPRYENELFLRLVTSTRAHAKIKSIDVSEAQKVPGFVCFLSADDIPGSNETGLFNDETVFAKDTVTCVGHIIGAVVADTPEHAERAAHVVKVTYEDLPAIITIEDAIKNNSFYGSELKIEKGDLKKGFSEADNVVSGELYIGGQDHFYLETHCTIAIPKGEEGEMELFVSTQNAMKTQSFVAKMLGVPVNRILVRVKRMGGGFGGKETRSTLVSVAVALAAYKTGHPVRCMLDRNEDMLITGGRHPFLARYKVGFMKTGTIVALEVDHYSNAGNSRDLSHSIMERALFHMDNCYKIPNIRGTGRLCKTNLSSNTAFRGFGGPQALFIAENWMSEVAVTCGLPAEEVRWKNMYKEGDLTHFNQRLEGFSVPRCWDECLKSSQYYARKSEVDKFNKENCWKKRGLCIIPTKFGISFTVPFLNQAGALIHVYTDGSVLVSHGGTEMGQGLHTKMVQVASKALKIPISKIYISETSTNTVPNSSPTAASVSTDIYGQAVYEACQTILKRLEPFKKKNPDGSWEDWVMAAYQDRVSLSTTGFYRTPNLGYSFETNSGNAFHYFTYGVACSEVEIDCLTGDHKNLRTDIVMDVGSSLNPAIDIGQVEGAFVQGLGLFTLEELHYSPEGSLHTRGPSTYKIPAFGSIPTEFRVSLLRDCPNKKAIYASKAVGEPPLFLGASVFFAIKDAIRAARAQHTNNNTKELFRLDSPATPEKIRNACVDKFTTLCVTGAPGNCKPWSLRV

IC50 [1] | inhibition at 50 µg/mL [2] | Structure (SMILES)
12.6 µM | 67.3% | O=c1cc(-c2ccc(O)cc2)oc2cc(O)c(O)c(O)c12 [SCUTELLAREIN]
– | 0% | O=c1c(O[C@@H]2O[C@@H](CO)[C@H](O)[C@H]2O)c(-c2ccc(O)cc2)oc2cc(O)cc(O)c12 [JUGLANIN]
– | 0% | COc1cc2oc(-c3ccc(O)cc3)c(O)c(=O)c2c(O)c1[C@@H]1O[C@H](CO)[C@@H](O)[C@H](O)[C@H]1O [KEYAKININ]
– | 0% | COc1cc(O)c2c(c1)O[C@H](c1ccc(O)cc1)CC2=O [SAKURANETIN]
176 µM | 50.2% | COc1c(O)cc(O)c2c(=O)cc(-c3ccccc3)oc12 [WOGONIN]
– | 82.9% | O=c1c(O)c(-c2cc(O)c(O)c(O)c2)oc2cc(O)ccc12 [ROBINETIN]
– | 0% | COc1cc(-c2coc3cc(O[C@@H]4O[C@H](CO)[C@@H](O)[C@H](O)[C@H]4O)c(OC)c(O)c3c2=O)cc(O)c1OC [IRIDIN]
– | 0% | COc1ccc([C@@H]2CC(=O)c3c(O)cc(O[C@@H]4O[C@H](CO)[C@@H](O)[C@H](O)[C@H]4O[C@@H]4O[C@@H](C)[C@H](O)[C@@H](O)[C@H]4O)cc3O2)cc1 [PONCIRIN]
– | 39.5% | COc1c(-c2ccc(O)c(O)c2)oc2cc(O[C@@H]3O[C@H](CO)[C@@H](O)[C@H](O)[C@H]3O)cc(O)c2c1=O [TRANSILIN]
34.6 µM | 90.3% | COc1cc(-c2oc3cc(O)cc(O)c3c(=O)c2OS(=O)(=O)O)ccc1O [PERSICARIN]
– | 33.1% | O=c1c(O[C@@H]2OC[C@@H](O)[C@H](O)[C@H]2O)c(-c2ccc(O)c(O)c2)oc2cc(O)cc(O)c12 [REYNOUTRIN]
– | 0% | COc1c(O)cc2occ(-c3ccc(O)cc3)c(=O)c2c1O [TECTORIGENIN]
– | 15.3% | O=c1c(-c2ccc(O[C@@H]3O[C@H](CO)[C@@H](O)[C@H](O)[C@H]3O)cc2)coc2cc(O)cc(O)c12 [SOPHORICOSIDE]

The next lines start with the compound.

Structure (SMILES) | IC50 [1] | inhibition at 50 µg/mL [2]
COc1c(O)cc2oc(-c3ccc(O)cc3)c(OC)c(=O)c2c1O [3,6-DIMETHOXY KAEMPFEROL] | 0.03 µM | 95%
O=c1cc(-c2ccc(O)c(-c3c(O)cc(O)c4c(=O)cc(-c5ccc(O)cc5)oc34)c2)oc2cc(O)cc(O)c12 [AMENTOFLAVONE] | 35.3 µM | 100%
COc1c(-c2ccc(O[C@@H]3O[C@H](CO)[C@@H](O)[C@H](O)[C@H]3O)c(O)c2)oc2cc(O)cc(O)c2c1=O | 35.6 µM | 69.1%
COc1c(-c2ccc(O)c(O)c2)oc2cc(O)cc(O)c2c1=O [3-O-METHYLQUERCETIN] | 31.6 µM | 98.5%
COc1ccc(-c2cc(=O)c3c(O)cc(O)cc3o2)cc1 [ACACETIN] | 14.1 µM | 55.7%
COc1c(O)cc2oc(-c3ccc(O)c(O)c3)cc(=O)c2c1O [EUPAFOLIN] | – | 49%
COc1ccc(-c2cc(=O)c3c(O)cc(O[C@@H]4O[C@H](CO[C@@H]5O[C@@H](C)[C@H](O)[C@@H](O)[C@H]5O)[C@@H](O)[C@H](O)[C@H]4O)cc3o2)cc1O [DIOSMIN] | – | 0%
O=c1c(-c2ccc(O)cc2)coc2cc(O)cc(O)c12 [GENISTEIN] | – | 0%
COc1cc2oc(-c3ccc(O)c(O)c3)cc(=O)c2c(O)c1OC [CIRSILIOL] | – | 0.5%
COc1ccc(-c2cc(=O)c3c(O)c([C@H]4O[C@H](CO)[C@@H](O)[C@H](O)[C@H]4O[C@H]4O[C@H](C)[C@@H](O)[C@H](O)[C@@H]4O)c(OC)cc3o2)cc1 [EMBININ] | – | 22.8%
O=c1cc(-c2ccc(O)c(O)c2)oc2cc(O[C@@H]3O[C@H](CO)[C@@H](O)[C@H](O)[C@H]3O)cc(O)c12 (single isomer, unassigned) [GALUTEOLIN] | 75.9 µM | 67.2%
CC(=O)Oc1cc(OC(C)=O)c2c(=O)c(OC(C)=O)c(-c3cc(OC(C)=O)c(OC(C)=O)c(OC(C)=O)c3)oc2c1 | – | 13.6%
COc1cc2oc(-c3ccccc3)cc(=O)c2c(OC)c1OC [BAICALEIN TRIMETHYL ETHER] | – | 22%
COc1ccc(-c2cc(=O)c3c(O)cc(O[C@@H]4O[C@H](CO[C@@H]5O[C@@H](C)[C@H](O)[C@@H](O)[C@H]5O)[C@@H](O)[C@H](O)[C@H]4O)cc3o2)cc1 [ACACIIN] | – | 15.1%
O=C1c2ccc(O)cc2O[C@H](c2ccc(O)c(O)c2)[C@H]1O [FUSTIN] | – | 27.2%
O=C1CC(c2ccc(O)c(O)c2)Oc2c1c(O)cc(O)c2[C@@H]1C(=O)c2c(O)cc(O)cc2O[C@H]1c1ccc(O)cc1 (some centres undefined) [FUKUGETIN] | 22.3 µM | 97.2%
O=C1c2c(O)cc(O)cc2O[C@H](c2ccc(O)cc2)[C@H]1O [DIHYDROKAEMPFEROL] | 93.8 µM | 66.9%
O=c1c(O[C@@H]2O[C@H](CO)[C@H](O)[C@H](O)[C@H]2O)c(-c2ccc(O)c(O)c2)oc2cc(O)cc(O)c12 [HYPEROSIDE] | – | 43%
CC(=O)Oc1cc(OC(C)=O)c2c(=O)c(OC(C)=O)c(-c3ccc(OC(C)=O)c(OC(C)=O)c3)oc2c1 | – | 0%
COc1ccc(-c2coc3cc(O)ccc3c2=O)cc1 [FORMONONETIN] | – | 17.6%
O=c1cc(-c2ccccc2)oc2cc(O)c(O)c(O)c12 [BAICALEIN] | 3.3 µM | 85.5%
O=C(O[C@H]1[C@H](Oc2c(-c3ccc(O)c(O)c3)oc3cc(O)cc(O)c3c2=O)O[C@H](CO)[C@@H](O)[C@@H]1O)c1cc(O)c(O)c(O)c1 | – | 21%
O=c1c(-c2ccc(O)cc2)coc2cc(O[C@@H]3O[C@H](CO)[C@@H](O)[C@H](O)[C@H]3O)ccc12 [DAIDZIN] | – | 0%
O=c1cc(-c2ccc(O)cc2)oc2c([C@@H]3O[C@H](CO)[C@@H](O)[C@H](O)[C@H]3O)c(O)cc(O)c12 [VITEXIN] | – | 0%

Source: ChEMBL document CHEMBL1150752, “Inhibition of cow's milk xanthine oxidase by flavonoids” (J Nat Prod, 1988)
